The record followed here is patent US20070213394A1 (priority 2004, published 2007).

T1 sequence (P41145 whole entry): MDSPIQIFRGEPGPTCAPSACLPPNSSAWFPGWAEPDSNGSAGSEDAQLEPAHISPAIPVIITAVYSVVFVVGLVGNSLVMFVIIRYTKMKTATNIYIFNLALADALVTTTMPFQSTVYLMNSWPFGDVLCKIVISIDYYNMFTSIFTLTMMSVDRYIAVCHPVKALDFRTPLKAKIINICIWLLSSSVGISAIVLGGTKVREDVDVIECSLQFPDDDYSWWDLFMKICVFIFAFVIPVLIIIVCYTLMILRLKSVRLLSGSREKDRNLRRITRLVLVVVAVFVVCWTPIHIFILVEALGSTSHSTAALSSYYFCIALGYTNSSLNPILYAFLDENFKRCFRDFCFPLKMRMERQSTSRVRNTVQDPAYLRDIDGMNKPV

The first experiment concerns the target T1, human kappa opioid receptor (Homo sapiens, UniProt P41145).
T1 construct: expressed in transfected cells; host or cells: Chinese hamster ovary cells (CHO-hKOR), membranes
As to the kind of experiment: biochemical.
Conditions: not given
It counts as binding.
`COC(=O)C1CC(OC)C(=O)C2C1(C)CCC1C(=O)OC(c3ccoc3)CC12C` (stereo not drawn) [Compound 205b, 2-epi-(O-methyl)-salvinorin B] had a Ki of more than 10 µM.
As to `CC(=O)OC1CC(C(=O)N2CCCC2C(=O)OCc2ccccc2)C2(C)CCC3C(=O)OC(c4ccoc4)CC3(C)C2C1=O` (stereo not shown) [Compound 104], the Ki was more than 10 µM.
On the same count and under the same terms, next, `C#CCCOC(=O)C1CC(OC(C)=O)C(=O)C2C1(C)CCC1C(=O)OC(c3ccoc3)CC12C` (stereo not shown) [Compound 53]: more than 10 µM.
For `CC(=O)OC1CC(C(=O)OCc2ccccc2)C2(C)CCC3C(=O)OC(c4ccoc4)CC3(C)C2C1=O` (stereo not shown) [Compound 37], the Ki was more than 10 µM.
Same read-out and setting: next, `CC(=O)OC1CC(C(=O)N(C)C)C2(C)CCC3C(=O)OC(c4ccoc4)CC3(C)C2C1=O` (stereo not shown) [Compound 221, C(4)-N,N-dimethylamide salvinorin A]: more than 10 µM; `CCC(=O)OC1CC(C(=O)OC)C2(C)CCC3C(=O)OC(c4ccoc4)CC3(C)C2C1=O` (stereo not drawn) [Compound 203b, 2-epi-salvinorin B propionate]: 0.641 ± 0.122 µM; `CC(=O)OC1CC(C(=O)NC(C)C(=O)OCc2ccccc2)C2(C)CCC3C(=O)OC(c4ccoc4)CC3(C)C2C1=O` (stereo not shown) [Compound 99]: more than 10 µM.
As for `CCCC(=O)OC1CC(C(=O)OC)C2(C)CCC3C(=O)OC(c4ccoc4)CC3(C)C2C1=O` (stereo not drawn) [Compound 204b, 2-epi-salvinorin B butyrate], the affinity, expressed as Ki, was 0.665 ± 0.1 µM.
Still for that read-out and setting: the figure for `CCOC(=O)C1CC(OC(C)=O)C(=O)C2C1(C)CCC1C(=O)OC(c3ccoc3)CC12C` (stereo not shown) [Compound 33] is more than 10 µM; for `CCCCCOC(=O)C1CC(OC(C)=O)C(=O)C2C1(C)CCC1C(=O)OC(c3ccoc3)CC12C` (stereo not shown) [Compound 40] it is more than 10 µM.
On the same count and under the same terms, the figure for `COC(=O)[C@@H]1C[C@H](OC(=O)CN(C)C)C(=O)C2[C@@]1(C)CC[C@H]1C(=O)O[C@H](c3ccoc3)C[C@]21C` (stereo partly shown) [Compound 12, 2-(2′-(N,N-dimethylamino)acetate) salvinorin B] is more than 10 µM; for `CCCCCCCCOC(=O)C1CC(OC(C)=O)C(=O)C2C1(C)CCC1C(=O)OC(c3ccoc3)CC12C` (stereo not shown) [Compound 42] it is more than 10 µM; for `C=CCOC(=O)C1CC(OC(C)=O)C(=O)C2C1(C)CCC1C(=O)OC(c3ccoc3)CC12C` (stereo not shown) [Compound 56] it is more than 10 µM.
`COC(=O)[C@@H]1C[C@H](OC(=O)[C@H](C)N)C(=O)C2[C@@]1(C)CC[C@H]1C(=O)O[C@H](c3ccoc3)C[C@]21C` (stereo partly shown) [Compound 25] displayed a Ki of more than 10 µM.
The same measure, in the same setting: the figure for `CC(=O)O[C@H]1C[C@@H](CO)[C@]2(C)CCC3C(=O)O[C@H](c4ccoc4)C[C@]3(C)[C@H]2C1=O` (stereo partly shown) [Compound 222, O-demethyl-18-deoxysalvinorin A] is more than 10 µM; for `CN[C@@H]1C[C@@H](C(=O)OC)[C@]2(C)CC[C@H]3C(=O)O[C@H](c4ccoc4)C[C@]3(C)C2C1=O` (stereo partly shown) [Compound 11, 2-(N-methylamino)-salvinorin] it is more than 10 µM.
The same measure, in the same setting: the figure for `CCCOC(=O)C1CC(OC(C)=O)C(=O)C2C1(C)CCC1C(=O)OC(c3ccoc3)CC12C` (stereo not shown) [Compound 54] is more than 10 µM.
Still for that read-out and setting: next, `CCC(=O)N(C)C1CC(C(=O)OC)C2(C)CCC3C(=O)OC(c4ccoc4)CC3(C)C2C1=O` (stereo not shown) [Compound 215a, 2-(N-methylpropionamide)-salvinorin]: 0.0016 ± 0.0001 µM; `COC(=O)[C@@H]1C[C@H](OC(=O)CNC(C)=O)C(=O)C2[C@@]1(C)CC[C@H]1C(=O)O[C@H](c3ccoc3)C[C@]21C` (stereo partly shown) [Compound 26]: more than 10 µM; `CCCCOC(=O)C1CC(OC(C)=O)C(=O)C2C1(C)CCC1C(=O)OC(c3ccoc3)CC12C` (stereo not shown) [Compound 35]: more than 10 µM.
Turning to `COC(=O)[C@@H]1C[C@H](OC(=O)CN(C)C)C(=O)C2[C@@]1(C)CC[C@H]1C(=O)O[C@H](c3ccoc3)C[C@]21C` (stereo partly shown) [Compound 27], the Ki is more than 10 µM.
Same read-out and setting: the figure for `CCOC1CC(C(=O)OC)C2(C)CCC3C(=O)OC(c4ccoc4)CC3(C)C2C1=O` (stereo not drawn) [Compound 206b, 2-epi-(O-ethyl)-salvinorin B] is more than 10 µM.

The same experiment, now with this note: read-out: Ki.
In the case of `CCNCC1CC(OC(C)=O)C(=O)C2C1(C)CCC1C(=O)OC(c3ccoc3)CC12C` (stereo not drawn) [C8-epi-compound 225, 8-epi-4-(N-ethylamino)methyl salvinorin A], the Ki is more than 10 µM.
The same measure, in the same setting: the figure for `CNC(=O)C1CC(OC(C)=O)C(=O)C2C1(C)CCC1C(=O)OC(c3ccoc3)CC12C` (stereo not drawn) [C8-epi-compound 219, 8-epi-C(4)-N-methylamide salvinorin A] is 1.39 ± 0.218 µM; for `CC(=O)OC1CC(CN(C)C)C2(C)CCC3C(=O)OC(c4ccoc4)CC3(C)C2C1=O` (stereo not drawn) [C8-epi-compound 226, 8-epi-4-(N,N-dimethylamino)methyl salvinorin A] it is more than 10 µM; for “8-epi-O-demethyl-18-deoxysalvinorin A [C8-epi-compound 222]” it is 1 ± 0.269 µM.
On the same count and under the same terms, next, `CNCC1CC(OC(C)=O)C(=O)C2C1(C)CCC1C(=O)OC(c3ccoc3)CC12C` (stereo not drawn) [C8-epi-compound 224, 8-epi-4-(N-methylamino)methyl salvinorin A]: more than 10 µM.

A further experiment concerns the target T1, human kappa opioid receptor. The experiment is described as follows: biochemical. As to conditions: 1 h, read-out: Efficacy.
Take `CCC(=O)N[C@H]1C[C@@H](C(=O)OC)[C@]2(C)CC[C@H]3C(=O)O[C@H](c4ccoc4)C[C@]3(C)[C@H]2C1=O` [Compound 213a, 2-(propionamide)-salvinorin]: the Emax was 109%.
Still for that read-out and setting: next, `CCC(=O)N[C@@H]1C[C@@H](C(=O)OC)[C@]2(C)CC[C@H]3C(=O)O[C@H](c4ccoc4)C[C@]3(C)[C@H]2C1=O` [Compound 213b, 2-epi-(propionamide)-salvinorin]: 102%; `CCN(C(C)=O)[C@@H]1C[C@@H](C(=O)OC)[C@]2(C)CC[C@H]3C(=O)O[C@H](c4ccoc4)C[C@]3(C)[C@H]2C1=O` [Compound 216b, 2-epi-(N-ethylacetamide)-salvinorin]: 95%.
Still for that read-out and setting: the figure for `COC(=O)[C@@H]1C[C@@H](N(C)C(C)=O)C(=O)C2[C@@]1(C)CC[C@H]1C(=O)O[C@H](c3ccoc3)C[C@]21C` (stereo partly drawn) [Compound 80, 2-epi-(N-methylacetamide)-salvinorin] is 106%.
Still for that read-out and setting: the figure for `CCN(C(C)=O)[C@H]1C[C@@H](C(=O)OC)[C@]2(C)CC[C@H]3C(=O)O[C@H](c4ccoc4)C[C@]3(C)[C@H]2C1=O` [Compound 216a, 2-(N-ethylacetamide)-salvinorin] is 104%.
For `COC(=O)[C@@H]1C[C@H](O)C(=O)C2[C@@]1(C)CC[C@H]1C(=O)O[C@H](c3ccoc3)C[C@]21C` (stereo partly shown) [Compound 1, salvinorin B], the Emax worked out at 98%.
On the same count and under the same terms, the figure for `CCC(=O)N(CC)[C@H]1C[C@@H](C(=O)OC)[C@]2(C)CC[C@H]3C(=O)O[C@H](c4ccoc4)C[C@]3(C)[C@H]2C1=O` [Compound 217a, 2-(N-ethylpropionamide)-salvinorin] is 100%; for `COC(=O)[C@@H]1C[C@H](O)C(=O)C2[C@@]3(C)C[C@@H](c4ccoc4)OC(=O)[C@H]3CC[C@]21C` (stereo partly shown) [Compound 5, Episalvinorin B] it is 102%; for `CCC(=O)N(CC)[C@@H]1C[C@@H](C(=O)OC)[C@]2(C)CC[C@H]3C(=O)O[C@H](c4ccoc4)C[C@]3(C)[C@H]2C1=O` [Compound 217b, 2-epi-(N-ethylpropionamide)-salvinorin] it is 96%.
Take `CCO[C@H]1C[C@@H](C(=O)OC)[C@]2(C)CC[C@H]3C(=O)O[C@H](c4ccoc4)C[C@]3(C)C2C1=O` (stereo partly shown) [Compound 15, 2-ethoxy-salvinorin B]: the Emax was 103%.
